≈ marks a conversion by molar mass, not a printed value. Read-outs that look alike come from different tables or passages of the source.
Legend:
[1] = test system: E. coli NCTC 13441 (UPEC); test: MIC broth microdilution; format: cell-based, Escherichia coli; conditions: for MIC: Escherichia coli, NCTC13441
How it was run: (§1)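 Planktonic cells were tested by CLSI broth microdilution in cation-adjusted Müller-Hinton broth, with compounds two-fold serially diluted to final concentrations of 0.39-200 μM (DMSO at most 2% final). After 20-24 h at 37° C in ambient air, MIC was taken as the lowest concentration inhibiting growth.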

[2] = test system: Escherichia coli K12 (EC); test: MIC broth microdilution; format: cell-based
How it was run: as §1

[3] = test system: Pseudomonas aeruginosa ATCC 33359 (PA); test: MIC broth microdilution; format: cell-based; conditions: for MIC: ATCC33359
How it was run: as §1

[4] = test system: Staphylococcus aureus ATCC 35556 (SA); test: MIC broth microdilution; format: cell-based; conditions: for MIC: ATCC35556
How it was run: as §1

[5] = test system: Klebsiella pneumoniae ATCC 10031 (KP2); test: MIC broth microdilution; format: cell-based; conditions: for MIC: ATCC10031
How it was run: (§2)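 Growth inhibition scored after 20-24 h at 37 °C in ambient air, in cation-adjusted Müller-Hinton broth; MIC is the lowest inhibitory concentration. Compounds serially diluted two-fold over 0.39-200 μM final (DMSO up to 2%), per CLSI microdilution guidelines.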

[6] = test system: Acinetobacter baumannii ATCC 17978 (AB); test: MIC broth microdilution; format: cell-based; conditions: for MIC: ATCC17978
How it was run: as §1

[7] = test system: human hepatocarcinoma cell line ATCC HB-8065 (HepG2); test: Human cell viability (CellTiter-Glo); format: cell-based; conditions: HepG2 cells, 24 h incubation, CellTiter-Glo luminescence, 0.2-100 μM, read-out: IC50 values against the HepG2 cell line
How it was run: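 Cytotoxicity was read as CellTiter-Glo luminescence after 24 h compound exposure at 37° C., 5% CO2. Final concentrations spanned 0.2-100 μM in two-fold steps, in 1% FBS MEM with 1% DMSO, on cells plated a day earlier at 20,000/well. IC50 came from 4-parameter logistic regression.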

[8] = test system: K. pneumoniae NCTC 13438 (KP1); test: MIC broth microdilution; format: cell-based, Klebsiella pneumoniae; conditions: for MIC: Klebsiella pneumoniae, NCTC13438
How it was run: as §2

| SMILES | MIC [1] | MIC [2] | MIC [3] | MIC [4] | MIC [5] | MIC [6] | IC50 ([7]; Homo sapiens) | MIC [8] | MIC UPEC [1] | MIC EC [2] | MIC PA [3] | MIC SA [4] | MIC KP2 [5] | MIC AB [6] | IC50 [7] | MIC KP1 [8] |
| --- | --- | --- | --- | --- | --- | --- | --- | --- | --- | --- | --- | --- | --- | --- | --- | --- |
| Cc1cc(-c2[nH]c(N)nc2-c2ccc3c(c2)NCC(=O)O3)ccn1 [Example 53, 6-(2-Amino-5-(2-methylpyridin-4-yl)-1H-imidazol-4-yl)-3,4-dihydro-2H-benzo[b][1,4]oxazin-2-one] | 1 to 10 µM (≈ 0.321 to 3.21 µg/mL) | 1 to 10 µM (≈ 0.321 to 3.21 µg/mL) | > 100 µM | > 100 µM | ≤ 1 µM | > 100 µM | > 100 µM | 10 to 100 µM (≈ 3.21 to 32.1 µg/mL) | – | – | – | – | – | – | – | – |
| Cc1cc(-c2[nH]c(N)nc2-c2cc3c(cc2F)OCC(=O)N3)ccn1 [Example 54, 6-(2-Amino-5-(2-methylpyridin-4-yl)-1H-imidazol-4-yl)-7-fluoro-2H-benzo[b][1,4]oxazin-3(4H)-one] | 1 to 10 µM (≈ 0.339 to 3.39 µg/mL) | 1 to 10 µM (≈ 0.339 to 3.39 µg/mL) | > 100 µM | > 100 µM | ≤ 1 µM | > 100 µM | > 100 µM | 10 to 100 µM (≈ 3.39 to 33.9 µg/mL) | – | – | – | – | – | – | – | – |
| Cc1cc(-c2[nH]c(N)nc2-c2cc3c(cc2F)OCCO3)ccn1 [Example 59, 4-(7-Fluoro-2,3-dihydrobenzo[b][1,4]dioxin-6-yl)-5-(2-methylpyridin-4-yl)-1H-imidazol-2-amine] | ≤ 1 µM | ≤ 1 µM | > 100 µM | > 100 µM | ≤ 1 µM | > 100 µM | > 100 µM | 10 to 100 µM (≈ 3.26 to 32.6 µg/mL) | – | – | – | – | – | – | – | – |
| Cc1cc(-c2[nH]c(N)nc2-c2ccc3c(c2F)OCCO3)ccn1 [Example 60, 4-(5-Fluoro-2,3-dihydrobenzo[b][1,4]dioxin-6-yl)-5-(2-methylpyridin-4-yl)-1H-imidazol-2-amine] | 1 to 10 µM (≈ 0.326 to 3.26 µg/mL) | 1 to 10 µM (≈ 0.326 to 3.26 µg/mL) | > 100 µM | > 100 µM | ≤ 1 µM | > 100 µM | > 100 µM | 10 to 100 µM (≈ 3.26 to 32.6 µg/mL) | – | – | – | – | – | – | – | – |
| COC(=O)CCN1CCOc2ccc(-c3nc(N)[nH]c3-c3ccnc(C)c3)cc21 [Example 61, Methyl 3-(6-(2-amino-5-(2-methylpyridin-4-yl)-1H-imidazol-4-yl)-2,3-dihydro-4H-benzo[b][1,4]oxazin-4-yl)propanoate] | 1 to 10 µM (≈ 0.393 to 3.93 µg/mL) | 1 to 10 µM (≈ 0.393 to 3.93 µg/mL) | > 100 µM | > 100 µM | ≤ 1 µM | > 100 µM | > 100 µM | 1 to 10 µM (≈ 0.393 to 3.93 µg/mL) | – | – | – | – | – | – | – | – |
| CC(=O)N1CCOc2ccc(-c3nc(N)[nH]c3-c3ccnc(C)c3)cc21 [Example 63, 1-(6-(2-Amino-5-(2-methylpyridin-4-yl)-1H-imidazol-4-yl)-2,3-dihydro-4H-benzo[b][1,4]oxazin-4-yl)ethan-1-one] | 10 to 100 µM (≈ 3.49 to 34.9 µg/mL) | 10 to 100 µM (≈ 3.49 to 34.9 µg/mL) | > 100 µM | > 100 µM | 1 to 10 µM (≈ 0.349 to 3.49 µg/mL) | > 100 µM | > 100 µM | > 100 µM | – | – | – | – | – | – | – | – |
| Cc1cc(-c2[nH]c(N)nc2-c2ccc3c(c2)N(CCO)C(=O)CO3)ccn1 [Example 66, 6-(2-Amino-4-(2-methylpyridin-4-yl)-1H-imidazol-5-yl)-4-(2-hydroxyethyl)-2H-benzo[b][1,4]oxazin-3(4H)-one] | 1 to 10 µM (≈ 0.365 to 3.65 µg/mL) | 1 to 10 µM (≈ 0.365 to 3.65 µg/mL) | > 100 µM | > 100 µM | ≤ 1 µM | > 100 µM | > 100 µM | 10 to 100 µM (≈ 3.65 to 36.5 µg/mL) | – | – | – | – | – | – | – | – |
| Cc1cc(-c2[nH]c(N)nc2-c2ccc(O)c(O)c2)ccn1 [Example 71, 4-(2-Amino-5-(2-methylpyridin-4-yl)-1H-imidazol-4-yl)benzene-1,2-diol] | 10 to 100 µM (≈ 2.82 to 28.2 µg/mL) | 10 to 100 µM (≈ 2.82 to 28.2 µg/mL) | > 100 µM | > 100 µM | 1 to 10 µM (≈ 0.282 to 2.82 µg/mL) | > 100 µM | > 100 µM | > 100 µM | – | – | – | – | – | – | – | – |
| CNc1nc(-c2ccc3c(c2)OCCO3)c(-c2ccnc(C)c2)[nH]1 [Example 74, 4-(2,3-dihydrobenzo[b][1,4]dioxin-6-yl)-N-methyl-5-(2-methylpyridin-4-yl)-1H-imidazol-2-amine] | 1 to 10 µM (≈ 0.322 to 3.22 µg/mL) | 1 to 10 µM (≈ 0.322 to 3.22 µg/mL) | > 100 µM | > 100 µM | ≤ 1 µM | > 100 µM | > 100 µM | 10 to 100 µM (≈ 3.22 to 32.2 µg/mL) | – | – | – | – | – | – | – | – |
| Cc1cc(-c2[nH]c(N(C)C)nc2-c2ccc3c(c2)OCCO3)ccn1 [Example 75, 4-(2,3-Dihydrobenzo[b][1,4]dioxin-6-yl)-N,N-dimethyl-5-(2-methylpyridin-4-yl)-1H-imidazol-2-amine] | 10 to 100 µM (≈ 3.36 to 33.6 µg/mL) | 10 to 100 µM (≈ 3.36 to 33.6 µg/mL) | > 100 µM | > 100 µM | 1 to 10 µM (≈ 0.336 to 3.36 µg/mL) | > 100 µM | > 100 µM | > 100 µM | – | – | – | – | – | – | – | – |
| Cc1cc(-c2sc(N)nc2-c2ccc3c(c2)OCCO3)ccn1 [Example 80, 4-(2,3-Dihydrobenzo[b][1,4]dioxin-6-yl)-5-(2-methylpyridin-4-yl)thiazol-2-amine] | > 100 µM | > 100 µM | > 100 µM | > 100 µM | 1 to 10 µM (≈ 0.325 to 3.25 µg/mL) | > 100 µM | > 100 µM | > 100 µM | – | – | – | – | – | – | – | – |
| Cc1cc(-c2[nH]c(=S)[nH]c2-c2ccc3c(c2)OCCO3)ccn1 [Example 81, 4-(2,3-Dihydrobenzo[b][1,4]dioxin-6-yl)-5-(2-methylpyridin-4-yl)-1,3-dihydro-2H-imidazole-2-thione] | 10 to 100 µM (≈ 3.25 to 32.5 µg/mL) | 10 to 100 µM (≈ 3.25 to 32.5 µg/mL) | > 100 µM | > 100 µM | ≤ 1 µM | > 100 µM | > 100 µM | > 100 µM | – | – | – | – | – | – | – | – |
| Cc1cc(-c2[nH]c(Cl)nc2-c2ccc3c(c2)OCCO3)ccn1 [Example 83, 4-(2-Chloro-4-(2,3-dihydrobenzo[b][1,4]dioxin-6-yl)-1H-imidazol-5-yl)-2-methylpyridine] | 1 to 10 µM (≈ 0.328 to 3.28 µg/mL) | 1 to 10 µM (≈ 0.328 to 3.28 µg/mL) | > 100 µM | > 100 µM | ≤ 1 µM | > 100 µM | > 100 µM | > 100 µM | – | – | – | – | – | – | – | – |
| CNC(=O)c1nc(-c2ccnc(C)c2)c(-c2ccc3c(c2)OCCO3)[nH]1 [Example 85, 5-(2,3-Dihydrobenzo[b][1,4]dioxin-6-yl)-N-methyl-4-(2-methylpyridin-4-yl)-1H-imidazole-2-carboxamide] | > 100 µM | > 100 µM | > 100 µM | > 100 µM | 1 to 10 µM (≈ 0.35 to 3.5 µg/mL) | > 100 µM | > 100 µM | > 100 µM | – | – | – | – | – | – | – | – |
| Cc1cc(-c2[nH]c(C(=O)O)nc2-c2ccc3c(c2)OCCO3)ccn1 [Example 86, 4-(2,3-dihydrobenzo[b][1,4]dioxin-6-yl)-5-(2-methylpyridin-4-yl)-1H-imidazole-2-carboxylate] | – | – | – | – | – | – | – | – | D (a MIC of over 100 is assigned the letter D) | D (a MIC of over 100 is assigned the letter D) | D (a MIC of over 100 is assigned the letter D) | D (a MIC of over 100 is assigned the letter D) | B (a MIC of from 1 to 10 is assigned the letter B) | D (a MIC of over 100 is assigned the letter D) | > 100 µM | D (a MIC of over 100 is assigned the letter D) |
